These results are taken from patent US5098920A, “1H-substituted-1,2,4-triazole compounds and methods of use thereof for treatment of cardiovascular disorders” (G. D. Searle & Co., priority 1990, dated 1992).

The subject of test [1] is angiotensin II receptor. The following applies: cited from earlier work; for angiotensin II antagonist activity: binding experiments, functional assays and in vivo tests, literature.
Test [2] concerns AII pressor response. Nature of the test: Assay C: In Vivo Intraduodenal Pressor Assay Response for AII Antagonists. Details: species or system rat (male Sprague-Dawley). The note with it: rats; for Inhibition: percent inhibition of AII (30 ng/kg i.v.) pressor response; for Duration: time from peak percent inhibition to 50% of peak. Here is the method:
Assay C: In Vivo Intraduodenal Pressor Assay Response for AII Antagonists
Male Sprague-Dawley rats weighing 225-300 grams were anesthetized with Inactin (100 mg/kg, i.p.) and catheters were implanted into the trachea, femoral artery, femoral vein and duodenum. Arterial pressure was recorded from the femoral artery catheter on a Gould chart recorder (Gould, Cleveland, Ohio). The fe:moral vein catheter was used for injections of angiotensin II, mecamylamine and atropine. The tracheal cathete'r allows for airway patency, and the duodenal catheter was used for intraduodenal (i.d.) administration of test compounds. After surgery, the rats were allowed to equilibrate for 30 minutes. Mecamylamine (3 mg/kg, 0.3 ml/kg) and atropine (400 ug/kg, 0.3 ml/kg) were then given i.v. to produce ganglion blockade. These compounds were administered every 90 minutes throughout the test procedure. Angiotensin II was given in bolus does i.v. (30 ng/kg in saline with 0.5% bovine serum albumin, 0.1 ml/kg) every 10 minutes three times or until the increase in arterial pressure produced was within 3 mmHg for two consecutive AII injections. The last two AII injections were averaged and were taken as the control AII pressor response. Ten minutes after the final control AII injection, the test compound (dissolved in sodium bicarbonate) was administered i.d. at a dose of 30 or 100 mg/kg in a volume of 0.2 ml. Angiotensin II injections were then given 5, 10, 20, 30, 45, 60, 75, 90, and 120 minutes after administration of the test compound and response of arterial pressure was monitored. The response to AII was calculated as percent of the control response and then the percent inhibition is calculated as 100 minus the percent control response. Duration of action of a test compound was defined as the time from peak percent inhibition to 50% of peak. One compound at one dose was tested in each rat. Each test compound was tested in two rats and the values for the two rats were averaged.

In test [3] the test system is rabbit aortic rings. Nature of the test: Assay B: In Vitro Vascular Smooth Muscle-Response for AII (antagonist activity in rabbit aortic rings). Format: cell-based, rabbit (male New Zealand white). The note with it: Oryctolagus cuniculus, rabbit aorta rings, antagonist at 10^-5 M, read-out: PA2 (converted). Here is the method: Assay B: In Vitro Vascular Smooth Muscle-Response for AII The compounds of the invention were tested for antagonist activity in rabbit aortic rings. Male New Zealand white rabbits (2-2.5 kg) were sacrificed using an overdose of pentobarbital and exsanguinated via the carotid arteries. The thoracic aorta was removed, cleaned of adherent fat and connective tissue and then cut into 3-mm ring segments. The endothelium was removed from the rings by gently sliding a rolled-up piece of filter paper into the vessel lumen. The rings were then mounted in a water-jacketed tissue bath, maintained at 37° C., between moveable and fixed ends of a stainless steel wire with the moveable end attached to an FTO3 Grass transducer coupled to a Model 7D Grass Polygraph for recording isometric force responses. […] The preparations were equilibrated for one hour before approximately one gram of passive tension was placed on the rings. Angiotensin II concentration-response curves were then recorded (3×10^-10 to 1×10^-5 M). Each concentration of AII was allowed to elicit its maximal contraction, and then AII was washed out repeatedly for 30 minutes before rechallenging with a higher concentration of AII. Aorta rings were exposed to the test antagonist at 10^-5 M for 5 minutes before challenging with AII. Adjacent segments of the same aorta ring were used for all concentration-response curves in the presence or absence of the test antagonist. The effectiveness of the test compound was expressed in terms of pA2 values and were calculated according to H. O. Schild [Br. J. Pharmacol. Chemother., 2, 189-206 (1947)]. […] Each test antagonist was evaluated in aorta rings from two rabbits.

For test [4], the target named is smooth muscle angiotensin II receptor. Nature of the test: Assay A: Angiotensin II Binding Activity (displacement of 125I-AII, rat uterine membrane preparation). The following applies: 50% displacement of specifically bound 125I-AII; rat uterine membranes; 25° C., 60 min. Here is the method: Assay A: Angiotensin II Binding Activity
Compounds of the invention were tested for ability to bind to the smooth muscle angiotensin II receptor using a rat uterine membrane preparation. […] Other chemicals were obtained from Sigma Chemical Co. This assay was carried out according to the method of Douglas et al [Endocrinology, 106, 120-124 (1980)]. Rat uterine membranes were prepared from fresh tissue. All procedures were carried out at 4° C. Uteri were stripped of fat and homogenized in phosphate-buffered saline at pH 7.4 containing 5 mM EDTA. The homogenate was centrifuged at 1500×g for 20 min., and the supernatant was recentrifuged at 100,000×g for 60 min. The pellet was resuspended in buffer consisting of 2 mM EDTA and 50 mM Tris-HCl (pH 7.5) to a final protein concentration of 4 mg/ml. […] The reaction was initiated by the addition of membrane protein and the mixture was incubated at 25° C. for 60 min. The incubation was terminated with ice-cold 50 mM Tris-HCl (pH 7.5) and the mixture was filtered to separate membrane-bound labelled peptide from the free ligand. The incubation tube and filter were washed with ice-cold buffer. Filters were assayed for radioactivity in a Micromedic gamma counter. Nonspecific binding was defined as binding in the presence of 10 μM of unlabelled AII. Specific binding was calculated as total binding minus nonspecific binding. […] Binding data were aralyzed by a nonlinear least-squares curve fitting program.
On the technique in general: In a radioligand displacement assay an active substance lowers the binding of a labelled ligand.

The mark [5] stands for this setting: only printed value, or first of two printed values.

pIC50: −log10 of the molar value. Read-outs that look alike come from different tables or passages of the source.

As to `CCCCc1nc(Cl)c(CC(=O)O)n1Cc1ccccc1[N+](=O)[O-]` [2-butyl-4-chloro-1-(2-nitrobenzyl)imidazole-5-acetic acid], in test [1], the “angiotensin II antagonist activity” value is “specific competitive angiotensin II antagonist activity”.
For `CCCCc1nc(Cl)c(CC(=O)O)n1Cc1ccccc1Cl` [2-n-butyl-4-chloro-1-(2-chlorobenzyl)imidazole-5-acetic acid], the “angiotensin II antagonist activity” value in test [1] is recorded as “specific competitive angiotensin II antagonist activity”.
`CCCCc1nc(CCCC)n(Cc2ccc(-c3ccccc3C(=O)O)cc2)n1` [Example 2, 4'-[(3,5-dibutyl-1H-1,2.4-triazol-1-yl)methyl][1,1'-biphenyl]-2-carboxylic acid]: in test [2] (30 mg/kg i.d.), the Inhibition (usually the share of the control response that was lost under treatment) is given as 98%. The Kb in test [3] (setting [5]) was 33.1 nM.
In test [2] (30 mg/kg i.d.), `CCCCc1nc(CCCC)n(Cc2ccc(-c3ccccc3-c3nnn[nH]3)cc2)n1` [Example 3, 5-[4'-[(3,5-dibutyl-1H-1,2,4-triazol-1-yl)methyl][1,1'-biphenyl]2-yl]-1H-tetrazole] displayed an Inhibition of 100% and a Duration of no less than 200 min. In addition, in test [3] (setting [5]), the Kb is 2 nM. Also, the pIC50 (in general, the IC50 on a negative log10 scale, so that one unit is a factor of ten) in test [4] is 8.27.
As for `CCCCc1nc(CCCC)n(Cc2ccc(-c3ccccc3C(=O)NNS(=O)(=O)C(F)(F)F)cc2)n1` [Example 5, 4'-[(3,5-dibutyl-1H-1,2,4-triazol-1-yl)methyl][1,1'-biphenyl]-2-carboxylicacid, 2-[(trifluoromethyl)sulfonyl]hydrazide], in test [2] (100 mg/kg i.d.), the Inhibition is on record as 38% and the Duration lay within 20 to 30 min. The Kb in test [3] (setting [5]) is 63.1 nM. In addition, the negative logarithm of the IC50 (pIC50) in test [4] was 6.70.
In test [2] (100 mg/kg i.d.), `CCCCc1nc(Cl)nn1Cc1ccc(-c2ccccc2C(=O)O)cc1` [Example 6, 4'-[(5-butyl-3-chloro-1H-1,2,4-triazol-1-yl)methyl][1,1'-biphenyl]-2-carboxylic acid] showed an Inhibition of 90% and a Duration of 120 min. In test [3] (setting [5]), the Kb is 204 nM.
Consider `CCCCc1nc(Cl)nn1Cc1ccc(-c2ccccc2-c2nnn[nH]2)cc1` [Example 7], for which the Kb in test [3] (setting [5]) was 9.33 nM. In test [4], the pIC50 was 7.08.
For the compound `CCCCc1nc(Cl)n(Cc2ccc(-c3ccccc3C(=O)O)cc2)n1` [Example 8, 4'-[(3-butyl-5-chloro-1H-1,2,4-triazol-1-yl)methyl][1,1'-biphenyl]-2-carboxylic acid], in test [4], the pIC50 was 5.77.
With `CCCCc1nc(Cl)n(Cc2ccc(-c3ccccc3-c3nnn[nH]3)cc2)n1` [Example 9], in test [2] (30 mg/kg i.d.), the Inhibition is on record as 100% and the Duration turned out to be 230 min. The Kb in test [3] (setting [5]) is 40.7 nM. Further, the negative logarithm of the IC50 (pIC50) in test [4] was 6.15.
In the case of `CCCCc1nc(C(F)(F)CCC)nn1Cc1ccc(-c2ccccc2-c2nnn[nH]2)cc1` [Example 10, 5-[4'-[[5-butyl-3-(1,1-difluorobutyl)-1H-1,2,4-triazol-1-yl]methyl][1,1'-biphenyl]-2-yl]-1H-tetrazole], the Inhibition in test [2] (30 mg/kg i.d.) was determined as 100%. The compound also registered a Duration in test [2] (30 mg/kg i.d.) of 240 min. The values for the Kb in test [3] (setting [5]) and in test [3] (second of two values) were 6.46 nM and 25.7 nM, respectively. In test [4], this compound showed a negative-log IC50 (pIC50) of 8.31.
For `CCCCc1nc(C(F)(F)CCC)n(Cc2ccc(-c3ccccc3-c3nnn[nH]3)cc2)n1` [Example 11, 5-[4'-[[3-butyl-5-(1,1-difluorobutyl)-1H-1,2,4-triazol-1-yl]methyl][1,1'-biphenyl]-2-yl]-1H-tetrazole], the Kb in test [3] (setting [5]) was 355 nM; in test [3] (second of two values) it was 170 nM. Further, the negative logarithm of the IC50 (pIC50) in test [4] was 6.80.
In the case of `CCCc1nc(CCC)n(Cc2ccc(-c3ccccc3-c3nnn[nH]3)cc2)n1` [Example 12, 5-[4'-[(3,5-dipropyl-1H-1,2,4-triazol-1-yl)methyl][1,1'-biphenyl]-2-yl]-1H-tetrazole], the Kb in test [3] (setting [5]) is 2.19 nM; in test [3] (second of two values) it was 2.57 nM. In test [4], this compound gave a pIC50 of 8.22.
In the case of `CCCCCc1nc(CCCCC)n(Cc2ccc(-c3ccccc3-c3nnn[nH]3)cc2)n1` [Example 13, 5-[4'-[(3,5-dipentyl-1H-1,2,4-triazol-1-yl)methyl][1,1'-biphenyl]-2-yl]-1H-tetrazole], the values for the Kb in test [3] (setting [5]) and in test [3] (second of two values) were 2 nM and 1.41 nM, respectively.
For the compound `CCCCc1nc(CCC)nn1Cc1ccc(-c2ccccc2-c2nnn[nH]2)cc1` [Example 14, 5-[4'-[(5-butyl-3-propyl-1H-1,2,4-triazol-1-yl)methyl]-[1,1'-biphenyl]-2-yl]-1H-tetrazole], the Kb was 1.45 nM in test [3] (setting [5]) and 1.95 nM in test [3] (second of two values). Moreover, the pIC50 in test [4] is 8.14.
Taken in the same sequence, the figures for `CCCCc1nc(CCC)n(Cc2ccc(-c3ccccc3-c3nnn[nH]3)cc2)n1` [Example 15, 5-[4'-[(3-butyl-5-propyl-1H-1,2,4-triazol-1-yl)methyl]-[1,1'-biphenyl]-2-yl]-1H-tetrazole] were 4.9 nM, 5.01 nM and 7.80.
In the same order, the values of `CCCCc1nc(CCC(C)C)n(Cc2ccc(-c3ccccc3-c3nnn[nH]3)cc2)n1` [Example 16, 5-[4'-[(3-butyl-5-isopentyl-1H-1,2,4-triazol-1-yl)methyl]-[1,1'-biphenyl]-2-yl]-1H-tetrazole] are 1.12 nM, 0.575 nM and 8.19.
Taken in the same sequence, the figures for `CCCCc1nc(CCC(C)C)nn1Cc1ccc(-c2ccccc2-c2nnn[nH]2)cc1` [Example 17, 5-[4'-[(5-butyl-3-isopentyl-1H-1,2,4-triazol-1-yl]methyl)[1,1'-biphenyl]-2-yl]-1H-tetrazole] were 2.29 nM, 3.98 nM and 8.40.
For `CNCC(=O)N[C@@H](CCCN=C(N)N)C(=O)N[C@H](C(=O)N[C@@H](Cc1ccc(O)cc1)C(=O)N[C@H](C(=O)N[C@@H](Cc1cnc[nH]1)C(=O)N1CCC[C@H]1C(=O)N[C@@H](C)C(=O)O)C(C)C)C(C)C` [Saralasin], the residual agonist activity entry in test [1] (background statement) is listed as “significant residual agonist activity”.
